From patent US5145783A, “Glyphosate-tolerant 5-endolpyruvyl-3-phosphoshikimate synthase” (Monsanto Company, priority 1990, dated 1992)

Key:
[1] = molecular target: petunia EPSP synthase with alanine for the first glycine of the conserved region (Petunia hybrida, UniProt P11043, G170A); assay: Glyphosate sensitivity of petunia EPSP synthase with alanine for the first glycine of the conserved region; format: biochemical; conditions: alanine inserted for the first glycine of the conserved region
Text: The EPSP synthase sequences shown in FIG. 2 represent a broad evolutionary range of source materials for EPSP synthases. […] However, those skilled in the art will recognize that a particular EPSP synthase may be produced by and isolated from another source material which may not have the exact sequence of the conserved region.

[2] = molecular target: T1, wild-type EPSP synthase of tomato (Solanum lycopersicum, UniProt P10748); assay: EPSP synthase activity assay, extracts of E. coli SR481 harboring pMON9719; format: biochemical
T1 construct: ATG translational initiation codon at the site predicted to be the start of the mature enzyme for in vitro expression in E. Coli; initiator methionine (ATG in an engineered NcoI site) (N); made in house; host or cells: E. coli SR481 (aroA mutant) harboring pMON9719, desalted cell extract
Description: E. coli SR481 cells harboring pMON9719 or pMON9729 were grown under conditions which induce the expression of the RecA promoter. The cells were lysed and the extracts were assayed for EPSP synthase activity.
Specifically, the bacterial cell paste was washed twice with 0.9% saline, suspended in buffer (100 mM Tris-HCl, 5 mM dithiothreitol, 1 mM EDTA, 10% glycerol and 1 mM benzamidine HCl) passed twice through the French Pressure Cell at 1000 psi. The cell abstract was separated from the cells by centrifuging at 15,000×gravity for 10 mins. at 5° C. It was desalted using Sephadex G-50 (Pharmacia, Piscataway, N.J.). The desalted extract was assayed for EPSP synthase activity as follows:
To an assay mix (40 μl) containing shikimate-3-phosphate (2 mM), ^14 C-phosphoenolpyruvate (1 mM, 1.2 mCi/mmol), ammonium molybdate (0.1 mM), potassium fluoride (5 mM), in 50 mM HEPES-KOH, pH 7, was added 10 μl of the extract and incubated at 25° C. for 2 mins. […] The radioactivity of the eluent was monitored using a Radiometric Flo-One Beta Instrument. […] The EPSP synthase activity was determined by measurement of the conversion of ^14 C-PEP to ^14 […], both of which are resolved under the above conditions of chromatography. The protein content of the extract was determined by the method of Bradford (Biorad Labs, Calif.). […]

[3] = tested on: MP4 cells (Mitchell diploid petunia); assay: MP4 suspension culture in MS media containing glyphosate; format: cell-based; conditions: 0.5 mM glyphosate (sodium salt) in MS media, estimated; read-out: cells which survived, share of the starting population
Description: The starting cell line, designated as the MP4 line, was derived from a Mitchell diploid petunia (see e.g., Ausubel 1980). The MP4 cells were suspended in Murashige and Skoog (MS) culture media, (GIBCO, Grand Island, N.Y.) All transfers involved dispensing 10 ml of suspension cultures into 50 ml of fresh media. Cultivation periods until the next transfer ranged from 10 to 14 days, and were based on visual indications that the culture was approaching saturation.
Approximately 10 ml of saturated suspension culture (containing about 5×10^6 cells) were transferred into 50 ml of MS media containing 0.5 mM glyphosate. The sodium salt of glyphosate was used throughout the experiments described herein. The large majority of cells were unable to reproduce in the presence of the glyphosate. The cells which survived (estimated to be less than 1% of the starting population) were cultured in 0.5 mM glyphosate and transferred to fresh media containing glyphosate every 10 to 14 days.

E coli 11303 SM-1 = assay: Growth of mutant E. coli in medium containing glyphosate; format: cell-based; conditions: 10 mM or higher glyphosate in the growth medium
Description: Cells of E. coli ATCC 11303 were transferred to medium A and incubated at 37° C.
This mutant bacterium was designated E coli 11303 SM-1. The AroA gene encoding EPSP synthase from this mutant bacterium was isolated as follows.

T1 sequence (P10748 77-520): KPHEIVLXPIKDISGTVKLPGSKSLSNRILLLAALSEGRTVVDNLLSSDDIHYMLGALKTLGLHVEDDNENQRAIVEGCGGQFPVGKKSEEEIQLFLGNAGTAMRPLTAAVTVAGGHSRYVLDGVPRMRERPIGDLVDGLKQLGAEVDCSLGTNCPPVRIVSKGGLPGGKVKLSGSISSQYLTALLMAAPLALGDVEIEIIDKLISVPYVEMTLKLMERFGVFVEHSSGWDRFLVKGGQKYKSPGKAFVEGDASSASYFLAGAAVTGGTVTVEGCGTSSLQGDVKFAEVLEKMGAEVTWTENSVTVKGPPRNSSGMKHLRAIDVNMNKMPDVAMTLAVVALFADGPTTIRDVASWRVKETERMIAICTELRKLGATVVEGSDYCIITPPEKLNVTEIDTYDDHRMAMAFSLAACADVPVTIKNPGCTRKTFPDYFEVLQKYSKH
Sequence of petunia EPSP synthase with alanine for the first glycine of the conserved region (P11043 73-516 G170A): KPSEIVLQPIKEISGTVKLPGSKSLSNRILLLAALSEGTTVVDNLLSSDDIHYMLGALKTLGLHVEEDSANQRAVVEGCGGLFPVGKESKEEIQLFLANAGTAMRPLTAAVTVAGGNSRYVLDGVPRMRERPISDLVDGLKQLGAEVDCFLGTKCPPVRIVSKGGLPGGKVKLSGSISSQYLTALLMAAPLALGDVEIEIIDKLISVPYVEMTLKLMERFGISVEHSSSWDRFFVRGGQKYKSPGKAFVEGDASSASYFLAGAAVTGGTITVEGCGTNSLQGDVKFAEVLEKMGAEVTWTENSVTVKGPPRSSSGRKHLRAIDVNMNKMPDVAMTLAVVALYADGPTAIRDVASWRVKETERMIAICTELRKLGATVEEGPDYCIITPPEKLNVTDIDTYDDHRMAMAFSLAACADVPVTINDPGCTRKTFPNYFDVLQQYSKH

O=C(O)CNCP(=O)(O)O [glyphosate, N-phosphonomethylglycine]
change in glyphosate sensitivity versus wild-type petunia EPSP synthase [1]: no attendant changes in glyphosate sensitivity | IC50 [2]: 12 µM | viability at 500 µM [3]: < 1% | growth in the presence of glyphosate (E coli 11303 SM-1): could grow rapidly
